In one assay the target is T1, ERBB4 (Homo sapiens, UniProt Q15303).
T1 construct: purchased DiscoveRx KINOMEscan (Ambit Biosciences)
On the set-up: method as in earlier work. The following applies: Table S1; cited from earlier work.

For a further assay, the target named is ERN1 (Homo sapiens, UniProt O75460). Also noted: method as in earlier work. The note with it: Table S1; cited from earlier work.
The target in another assay is T2, IGF1R (Homo sapiens, UniProt P08069).
T2 construct: DNA tag (qPCR read-out); purchased Ambit Biosciences (KINOMEscan service)
Also noted: method as in earlier work. The note with it: Table S1; cited from earlier work.

For a further assay, the target named is T3, AAK1 (Homo sapiens, UniProt Q2M2I8).
T3 construct: purchased DiscoveRx KINOMEscan (Ambit Biosciences)
Nature of the assay: KINOMEscan panel screen. It is filed as binding. The note with it: read-out: Percent Control(%).

Assay [1] concerns the target T4, ABL1(H396P)-nonphosphorylated (Homo sapiens, UniProt P00519, H396P).
T4 construct: purchased DiscoveRx KINOMEscan (Ambit Biosciences)
Nature of the assay: KINOMEscan panel screen. It is filed as binding. The following applies: read-out: Percent Control(%).

The target in assay [2] is T5, ABL1(Y253F)-phosphorylated (Homo sapiens, UniProt P00519, Y253F).
T5 construct: purchased DiscoveRx KINOMEscan (Ambit Biosciences)
The assay can be described thus: KINOMEscan panel screen. The following applies: read-out: Percent Control(%). In kind it is binding.

For another assay, the target named is T6, AKT1 (Homo sapiens, UniProt P31749).
T6 construct: purchased DiscoveRx KINOMEscan (Ambit Biosciences)
T6 sequence (P31749 whole entry): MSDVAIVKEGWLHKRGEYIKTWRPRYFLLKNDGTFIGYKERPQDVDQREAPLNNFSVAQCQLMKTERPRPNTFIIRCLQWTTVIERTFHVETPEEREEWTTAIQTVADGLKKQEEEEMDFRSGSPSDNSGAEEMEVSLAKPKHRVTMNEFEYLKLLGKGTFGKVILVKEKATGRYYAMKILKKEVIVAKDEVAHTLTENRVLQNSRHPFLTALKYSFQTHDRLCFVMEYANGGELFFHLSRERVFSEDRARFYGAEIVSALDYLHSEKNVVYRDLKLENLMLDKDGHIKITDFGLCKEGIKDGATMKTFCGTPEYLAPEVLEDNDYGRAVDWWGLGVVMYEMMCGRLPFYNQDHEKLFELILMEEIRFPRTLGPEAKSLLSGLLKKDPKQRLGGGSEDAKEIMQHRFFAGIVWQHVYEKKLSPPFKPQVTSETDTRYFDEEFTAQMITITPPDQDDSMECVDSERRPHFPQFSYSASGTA
Nature of the assay: KINOMEscan panel screen. In kind it is binding. The note with it: read-out: Percent Control(%).

The target in the next assay is T7, CDKL2 (Homo sapiens, UniProt Q92772).
T7 construct: purchased DiscoveRx KINOMEscan (Ambit Biosciences)
The assay can be described thus: KINOMEscan panel screen. In kind it is binding. The note with it: read-out: Percent Control(%).

Another assay addresses T8, CIT (Homo sapiens, UniProt O14578).
T8 construct: purchased DiscoveRx KINOMEscan (Ambit Biosciences)
Nature of the assay: KINOMEscan panel screen. In kind it is binding. The note with it: read-out: Percent Control(%).

The next assay concerns the target T9, CSNK1G2 (Homo sapiens, UniProt P78368).
T9 construct: purchased DiscoveRx KINOMEscan (Ambit Biosciences)
Nature of the assay: KINOMEscan panel screen. The following applies: read-out: Percent Control(%). In kind it is binding.

The target of a further assay is T10, CSNK2A2 (Homo sapiens, UniProt P19784).
T10 construct: purchased DiscoveRx KINOMEscan (Ambit Biosciences)
The assay can be described thus: KINOMEscan panel screen. It is filed as binding. The note with it: read-out: Percent Control(%).

The next assay deals with T11, EGFR (Homo sapiens, UniProt P00533).
T11 construct: purchased DiscoveRx KINOMEscan (Ambit Biosciences)
The assay can be described thus: KINOMEscan panel screen. In kind it is binding. The note with it: read-out: Percent Control(%).

The target of another assay is T12, EPHA4 (Homo sapiens, UniProt P54764).
T12 construct: purchased DiscoveRx KINOMEscan (Ambit Biosciences)
The assay can be described thus: KINOMEscan panel screen. In kind it is binding. The following applies: read-out: Percent Control(%).

Another assay addresses T13, EPHB3 (Homo sapiens, UniProt P54753).
T13 construct: purchased DiscoveRx KINOMEscan (Ambit Biosciences)
The assay can be described thus: KINOMEscan panel screen. It is filed as binding. The note with it: read-out: Percent Control(%).

For a further assay, the target named is T14, FGFR1 (Homo sapiens, UniProt P11362).
T14 construct: purchased DiscoveRx KINOMEscan (Ambit Biosciences)
T14 sequence (P11362 22-822): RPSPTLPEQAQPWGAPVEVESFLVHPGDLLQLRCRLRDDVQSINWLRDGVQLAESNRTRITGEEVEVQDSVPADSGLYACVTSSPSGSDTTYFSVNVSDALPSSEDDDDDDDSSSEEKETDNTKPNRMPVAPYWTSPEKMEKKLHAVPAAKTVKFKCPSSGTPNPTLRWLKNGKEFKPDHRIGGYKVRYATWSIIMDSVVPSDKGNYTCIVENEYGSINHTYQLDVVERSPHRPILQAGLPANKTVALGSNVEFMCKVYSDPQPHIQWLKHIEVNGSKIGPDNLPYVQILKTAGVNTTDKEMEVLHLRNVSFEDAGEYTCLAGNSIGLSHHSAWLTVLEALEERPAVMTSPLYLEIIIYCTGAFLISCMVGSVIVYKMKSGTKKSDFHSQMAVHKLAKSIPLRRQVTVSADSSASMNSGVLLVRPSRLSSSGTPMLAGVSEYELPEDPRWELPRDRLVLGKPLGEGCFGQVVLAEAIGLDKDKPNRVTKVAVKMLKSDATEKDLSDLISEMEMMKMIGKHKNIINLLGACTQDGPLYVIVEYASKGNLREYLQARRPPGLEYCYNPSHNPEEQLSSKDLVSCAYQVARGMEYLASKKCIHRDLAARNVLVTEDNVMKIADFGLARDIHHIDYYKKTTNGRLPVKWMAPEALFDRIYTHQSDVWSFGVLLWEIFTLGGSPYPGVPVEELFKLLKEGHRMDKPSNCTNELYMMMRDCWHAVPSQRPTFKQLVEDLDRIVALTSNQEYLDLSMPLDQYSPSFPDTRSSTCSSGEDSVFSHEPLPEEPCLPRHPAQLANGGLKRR
The assay can be described thus: KINOMEscan panel screen. It is filed as binding. The note with it: read-out: Percent Control(%).

For another assay, the target named is T15, FGR (Homo sapiens, UniProt P09769).
T15 construct: purchased DiscoveRx KINOMEscan (Ambit Biosciences)
The assay can be described thus: KINOMEscan panel screen. It is filed as binding. The following applies: read-out: Percent Control(%).

The target in the next assay is T16, FLT1 (Homo sapiens, UniProt P17948).
T16 construct: purchased DiscoveRx KINOMEscan (Ambit Biosciences)
The assay can be described thus: KINOMEscan panel screen. In kind it is binding. The note with it: read-out: Percent Control(%).

In a further assay the target is T17, GCN2(Kin.Dom.2,S808G) (Homo sapiens, UniProt Q9P2K8, S808G).
T17 construct: GCN2(Kin.Dom.2,S808G); purchased DiscoveRx KINOMEscan (Ambit Biosciences)
The assay can be described thus: KINOMEscan panel screen. It is filed as binding. The following applies: read-out: Percent Control(%).

Another assay addresses T18, HUNK (Homo sapiens, UniProt P57058).
T18 construct: purchased DiscoveRx KINOMEscan (Ambit Biosciences)
Nature of the assay: KINOMEscan panel screen. It is filed as binding. The note with it: read-out: Percent Control(%).

A further assay has as its target T19, IKK-alpha (Homo sapiens, UniProt O15111).
T19 construct: purchased DiscoveRx KINOMEscan (Ambit Biosciences)
The assay can be described thus: KINOMEscan panel screen. In kind it is binding. The following applies: read-out: Percent Control(%).

For another assay, the target named is T20, JNK1 (Homo sapiens, UniProt P45983).
T20 construct: purchased DiscoveRx KINOMEscan (Ambit Biosciences)
The assay can be described thus: KINOMEscan panel screen. In kind it is binding. The following applies: read-out: Percent Control(%).

A further assay deals with T21, KIT(D816V) (Homo sapiens, UniProt P10721, D816V).
T21 construct: purchased DiscoveRx KINOMEscan (Ambit Biosciences)
Nature of the assay: KINOMEscan panel screen. In kind it is binding. The note with it: read-out: Percent Control(%).

In another assay the target is T22, LKB1 (Homo sapiens, UniProt Q15831).
T22 construct: purchased DiscoveRx KINOMEscan (Ambit Biosciences)
Nature of the assay: KINOMEscan panel screen. The following applies: read-out: Percent Control(%). It is filed as binding.

For the next assay, the target named is LOK (Homo sapiens, UniProt O94804). The assay can be described thus: KINOMEscan panel screen. The following applies: read-out: Percent Control(%). In kind it is binding.
Sequence of LOK (O94804 whole entry): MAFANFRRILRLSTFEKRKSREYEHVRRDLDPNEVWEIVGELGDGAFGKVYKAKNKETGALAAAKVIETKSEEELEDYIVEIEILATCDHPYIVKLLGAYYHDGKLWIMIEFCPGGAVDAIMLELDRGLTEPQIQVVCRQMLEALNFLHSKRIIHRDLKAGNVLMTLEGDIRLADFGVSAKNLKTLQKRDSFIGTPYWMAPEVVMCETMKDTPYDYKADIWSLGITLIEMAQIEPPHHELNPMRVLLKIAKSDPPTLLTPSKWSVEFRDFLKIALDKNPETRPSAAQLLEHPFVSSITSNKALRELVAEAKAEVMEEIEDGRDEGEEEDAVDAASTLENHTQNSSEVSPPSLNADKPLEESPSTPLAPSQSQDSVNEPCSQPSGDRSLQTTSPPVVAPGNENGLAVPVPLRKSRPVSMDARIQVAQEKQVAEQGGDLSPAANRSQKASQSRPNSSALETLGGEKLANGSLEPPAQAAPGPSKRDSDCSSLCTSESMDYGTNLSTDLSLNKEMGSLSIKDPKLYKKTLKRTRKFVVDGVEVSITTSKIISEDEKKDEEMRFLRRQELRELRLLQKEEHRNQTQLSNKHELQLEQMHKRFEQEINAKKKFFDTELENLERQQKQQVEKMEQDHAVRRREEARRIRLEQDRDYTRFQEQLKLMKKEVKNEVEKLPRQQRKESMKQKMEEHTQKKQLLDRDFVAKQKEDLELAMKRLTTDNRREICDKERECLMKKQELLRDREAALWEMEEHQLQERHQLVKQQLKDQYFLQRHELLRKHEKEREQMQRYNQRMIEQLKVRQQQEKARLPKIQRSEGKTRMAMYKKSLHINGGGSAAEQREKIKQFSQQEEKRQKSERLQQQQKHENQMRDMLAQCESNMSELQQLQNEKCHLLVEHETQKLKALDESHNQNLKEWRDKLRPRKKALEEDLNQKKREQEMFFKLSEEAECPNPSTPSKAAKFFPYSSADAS
For a further assay, the target named is T23, LZK (Homo sapiens, UniProt O43283).
T23 construct: purchased DiscoveRx KINOMEscan (Ambit Biosciences)
The assay can be described thus: KINOMEscan panel screen. It is filed as binding. The note with it: read-out: Percent Control(%).

Another assay addresses T24, MEK1 (Homo sapiens, UniProt Q02750).
T24 construct: purchased DiscoveRx KINOMEscan (Ambit Biosciences)
Nature of the assay: KINOMEscan panel screen. In kind it is binding. The note with it: read-out: Percent Control(%).

Another assay concerns the target T25, MST3 (Homo sapiens, UniProt Q9Y6E0).
T25 construct: purchased DiscoveRx KINOMEscan (Ambit Biosciences)
Nature of the assay: KINOMEscan panel screen. In kind it is binding. The following applies: read-out: Percent Control(%).

A further assay deals with T26, NEK7 (Homo sapiens, UniProt Q8TDX7).
T26 construct: purchased DiscoveRx KINOMEscan (Ambit Biosciences)
Nature of the assay: KINOMEscan panel screen. It is filed as binding. The note with it: read-out: Percent Control(%).

Another assay addresses T27, NLK (Homo sapiens, UniProt Q9UBE8).
T27 construct: purchased DiscoveRx KINOMEscan (Ambit Biosciences)
The assay can be described thus: KINOMEscan panel screen. In kind it is binding. The following applies: read-out: Percent Control(%).

A further assay addresses T28, PAK7 (Homo sapiens, UniProt Q9P286).
T28 construct: purchased DiscoveRx KINOMEscan (Ambit Biosciences)
Nature of the assay: KINOMEscan panel screen. It is filed as binding. The following applies: read-out: Percent Control(%).

In another assay the target is T29, PDGFRA (Homo sapiens, UniProt P16234).
T29 construct: purchased DiscoveRx KINOMEscan (Ambit Biosciences)
Nature of the assay: KINOMEscan panel screen. In kind it is binding. The note with it: read-out: Percent Control(%).

The next assay concerns the target T30, PIP5K2C (Homo sapiens, UniProt Q8TBX8).
T30 construct: purchased DiscoveRx KINOMEscan (Ambit Biosciences)
Nature of the assay: KINOMEscan panel screen. In kind it is binding. The following applies: read-out: Percent Control(%).

For a further assay, the target named is T31, PKNB(M.tuberculosis) (Mycobacterium tuberculosis, UniProt P9WI81).
T31 construct: purchased DiscoveRx KINOMEscan (Ambit Biosciences)
Nature of the assay: KINOMEscan panel screen. The following applies: read-out: Percent Control(%). In kind it is binding.

A further assay addresses T32, PLK3 (Homo sapiens, UniProt Q9H4B4).
T32 construct: purchased DiscoveRx KINOMEscan (Ambit Biosciences)
Nature of the assay: KINOMEscan panel screen. In kind it is binding. The following applies: read-out: Percent Control(%).

Assay [3] deals with T33, RPS6KA5(Kin.Dom.2-C-terminal) (Homo sapiens, UniProt O75582).
T33 construct: RPS6KA5(Kin.Dom.2-C-terminal); purchased DiscoveRx KINOMEscan (Ambit Biosciences)
Nature of the assay: KINOMEscan panel screen. In kind it is binding. The note with it: read-out: Percent Control(%).

The target of another assay is T34, SGK (Homo sapiens, UniProt O00141).
T34 construct: purchased DiscoveRx KINOMEscan (Ambit Biosciences)
T34 sequence (O00141 whole entry): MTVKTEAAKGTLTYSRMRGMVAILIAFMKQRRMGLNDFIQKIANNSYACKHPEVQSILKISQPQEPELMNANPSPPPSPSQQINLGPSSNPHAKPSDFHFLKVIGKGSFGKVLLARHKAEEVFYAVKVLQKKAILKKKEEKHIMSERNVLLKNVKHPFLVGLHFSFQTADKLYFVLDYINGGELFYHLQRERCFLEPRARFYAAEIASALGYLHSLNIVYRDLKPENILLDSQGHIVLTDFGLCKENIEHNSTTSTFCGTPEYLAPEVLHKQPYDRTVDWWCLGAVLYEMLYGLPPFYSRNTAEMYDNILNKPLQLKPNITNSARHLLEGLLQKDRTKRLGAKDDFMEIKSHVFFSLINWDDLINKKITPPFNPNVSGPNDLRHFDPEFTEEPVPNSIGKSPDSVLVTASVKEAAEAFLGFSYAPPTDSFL
The assay can be described thus: KINOMEscan panel screen. It is filed as binding. The following applies: read-out: Percent Control(%).

The target of a further assay is T35, SIK2 (Homo sapiens, UniProt Q9H0K1).
T35 construct: purchased DiscoveRx KINOMEscan (Ambit Biosciences)
T35 sequence (Q9H0K1 whole entry): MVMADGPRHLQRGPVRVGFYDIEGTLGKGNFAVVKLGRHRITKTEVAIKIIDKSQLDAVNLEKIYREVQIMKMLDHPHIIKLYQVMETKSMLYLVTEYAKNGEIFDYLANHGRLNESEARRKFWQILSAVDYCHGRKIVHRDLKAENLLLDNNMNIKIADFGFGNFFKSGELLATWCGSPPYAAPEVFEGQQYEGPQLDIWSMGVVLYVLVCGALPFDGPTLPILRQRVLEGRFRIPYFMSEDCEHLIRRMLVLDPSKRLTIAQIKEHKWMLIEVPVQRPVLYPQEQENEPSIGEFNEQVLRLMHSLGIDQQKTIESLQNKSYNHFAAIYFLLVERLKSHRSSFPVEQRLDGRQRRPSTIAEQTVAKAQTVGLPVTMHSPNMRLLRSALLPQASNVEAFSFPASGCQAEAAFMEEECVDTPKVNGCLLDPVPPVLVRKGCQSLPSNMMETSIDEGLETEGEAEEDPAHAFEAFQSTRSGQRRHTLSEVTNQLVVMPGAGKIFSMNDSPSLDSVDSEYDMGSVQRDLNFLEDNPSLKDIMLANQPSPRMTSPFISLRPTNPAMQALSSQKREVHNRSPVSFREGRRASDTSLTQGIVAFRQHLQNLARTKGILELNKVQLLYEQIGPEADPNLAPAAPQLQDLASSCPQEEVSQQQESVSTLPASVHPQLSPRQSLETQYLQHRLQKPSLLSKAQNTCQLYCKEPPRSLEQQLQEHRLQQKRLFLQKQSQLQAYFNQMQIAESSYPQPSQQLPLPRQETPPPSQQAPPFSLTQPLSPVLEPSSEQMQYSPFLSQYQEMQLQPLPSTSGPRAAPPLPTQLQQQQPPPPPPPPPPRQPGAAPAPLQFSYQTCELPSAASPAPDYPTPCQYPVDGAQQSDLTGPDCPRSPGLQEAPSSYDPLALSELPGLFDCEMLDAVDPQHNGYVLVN
The assay can be described thus: KINOMEscan panel screen. It is filed as binding. The note with it: read-out: Percent Control(%).

For another assay, the target named is T36, STK35 (Homo sapiens, UniProt Q8TDR2).
T36 construct: purchased DiscoveRx KINOMEscan (Ambit Biosciences)
Nature of the assay: KINOMEscan panel screen. The note with it: read-out: Percent Control(%). In kind it is binding.

In the next assay the target is T37, SYK (Homo sapiens, UniProt P43405).
T37 construct: purchased DiscoveRx KINOMEscan (Ambit Biosciences)
The assay can be described thus: KINOMEscan panel screen. In kind it is binding. The following applies: read-out: Percent Control(%).

Another assay concerns the target T38, TAOK1 (Homo sapiens, UniProt Q7L7X3).
T38 construct: purchased DiscoveRx KINOMEscan (Ambit Biosciences)
Nature of the assay: KINOMEscan panel screen. In kind it is binding. The following applies: read-out: Percent Control(%).

For another assay, the target named is T39, TNIK (Homo sapiens, UniProt Q9UKE5).
T39 construct: purchased DiscoveRx KINOMEscan (Ambit Biosciences)
T39 sequence (Q9UKE5 whole entry): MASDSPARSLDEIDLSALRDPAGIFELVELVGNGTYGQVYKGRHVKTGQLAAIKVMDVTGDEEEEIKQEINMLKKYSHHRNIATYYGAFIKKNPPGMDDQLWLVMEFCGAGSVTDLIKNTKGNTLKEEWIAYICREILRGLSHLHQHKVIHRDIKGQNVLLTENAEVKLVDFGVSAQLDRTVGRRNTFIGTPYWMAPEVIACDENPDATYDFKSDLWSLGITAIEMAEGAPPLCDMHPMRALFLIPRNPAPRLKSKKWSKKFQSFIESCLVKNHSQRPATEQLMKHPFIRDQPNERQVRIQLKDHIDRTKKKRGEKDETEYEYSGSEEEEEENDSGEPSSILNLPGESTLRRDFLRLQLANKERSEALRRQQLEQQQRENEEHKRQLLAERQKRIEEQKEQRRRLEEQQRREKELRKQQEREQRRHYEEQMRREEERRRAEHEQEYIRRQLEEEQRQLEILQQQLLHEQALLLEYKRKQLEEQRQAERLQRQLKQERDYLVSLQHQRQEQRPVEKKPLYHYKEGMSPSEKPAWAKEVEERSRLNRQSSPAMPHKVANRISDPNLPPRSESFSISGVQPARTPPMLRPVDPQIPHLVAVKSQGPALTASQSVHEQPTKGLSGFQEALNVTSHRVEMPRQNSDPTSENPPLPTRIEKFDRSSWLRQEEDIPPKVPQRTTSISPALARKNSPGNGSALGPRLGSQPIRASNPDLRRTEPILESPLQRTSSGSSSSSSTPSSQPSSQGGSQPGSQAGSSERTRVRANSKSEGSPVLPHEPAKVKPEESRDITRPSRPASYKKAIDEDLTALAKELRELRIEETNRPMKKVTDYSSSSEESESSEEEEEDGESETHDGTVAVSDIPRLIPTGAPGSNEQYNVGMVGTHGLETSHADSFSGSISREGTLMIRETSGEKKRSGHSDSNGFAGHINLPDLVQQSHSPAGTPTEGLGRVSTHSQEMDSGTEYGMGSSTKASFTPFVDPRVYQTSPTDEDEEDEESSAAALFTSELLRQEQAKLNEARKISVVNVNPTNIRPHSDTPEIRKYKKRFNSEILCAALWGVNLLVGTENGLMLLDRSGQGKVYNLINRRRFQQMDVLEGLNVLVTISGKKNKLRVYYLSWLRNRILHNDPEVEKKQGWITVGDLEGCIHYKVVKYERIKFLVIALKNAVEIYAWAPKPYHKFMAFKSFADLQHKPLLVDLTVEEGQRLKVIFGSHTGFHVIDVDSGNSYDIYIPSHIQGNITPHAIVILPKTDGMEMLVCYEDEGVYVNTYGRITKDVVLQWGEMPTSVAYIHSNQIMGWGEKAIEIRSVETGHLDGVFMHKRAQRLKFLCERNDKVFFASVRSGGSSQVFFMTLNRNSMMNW
The assay can be described thus: KINOMEscan panel screen. In kind it is binding. The note with it: read-out: Percent Control(%).

SMILES strings stand for the structures. Bounds are passed on as bounds.

By IC50 is commonly meant the point on the concentration scale where inhibition reaches its midpoint. Take `O=C(Nc1ccc(Oc2ncnc3[nH]ncc23)cc1)Nc1ccc(Cl)c(C(F)(F)F)c1` [Compound 1, 1-(4-(1H-pyrazolo[3,4-d]pyrimidin-4-yloxy)phenyl)-3-(4-chloro-3-(trifluoromethyl)phenyl)urea]: the half-maximal inhibitory concentration (IC50) on ERBB4, at ERN1 and at IGF1R was above 10 µM each time.
Consider `CC(C)(C)c1cc(NC(=O)Nc2ccc(Oc3ncnc4[nH]ncc34)c(F)c2)no1` [SKLB-677, 1-(4-(1H-pyrazolo[3,4-d]pyrimidin-4-yloxy)-3-fluorophenyl)-3-(5-tert-butylisoxazol-3-yl)urea], for which the remaining binding at 10 µM at AAK1 amounted to 72%; in [1] it was 5.8%; in assay [2], 10%; on AKT1 it was 100%; on CDKL2, 1.7%; on CIT it was 16%. The remaining binding at 10 µM on CSNK1G2 came to 26%; on CSNK2A2, 71%; on EGFR, 29%; at EPHA4 it was 4.8%; on EPHB3, 0.8%; at FGFR1 it was 1.4%. For the same compound, the remaining binding at 10 µM at FGR was found to be 9.4%; at FLT1, 0.05%; at GCN2(Kin.Dom.2,S808G), 20%; at HUNK, 80%; on IKK-alpha, 75%; at JNK1, 52%. The remaining binding at 10 µM was found to be 0.2% at KIT(D816V); 96% on LKB1; 0% at LOK; 93% on LZK; 7.2% on MEK1; 46% at MST3. Moreover, the remaining binding at 10 µM at NEK7 was 48%; on NLK it was 1.2%; on PAK7 it was 100%; at PDGFRA, 0.25%; on PIP5K2C, 100%; at PKNB(M.tuberculosis) it was 100%. Further, the remaining binding at 10 µM on PLK3 was found to be 100%; in assay [3], 100%; at SGK it was 29%; at SIK2, 69%; at STK35, 0.95%; at SYK it was 25%. Moreover, the remaining binding at 10 µM at TAOK1 was 3.2%; at TNIK, 5.2%.

The record behind these values is article PMC4620497 (Scientific Reports, 2015).
